Entries after “also recorded” stand apart in the source; their conditions may differ. Marks after values point to notes of the source that are not given here. Values belong to the compound of their own block, whether it stands above or below them.
Columns and labels:
[1] = set-up: species or system human; settings: in vivo
Experimental: (§1) A study was undertaken to evaluate the effectiveness of the composition of the present invention and its effect on the patients. Thirty-seven healthy non-smoking post-menopausal women (50˜70 yr) were randomly assigned to one of 5 groups, to take a daily dose of mixed carotenoids (β-carotene, lutein and lycopene, 4 mg each), or 12 mg of single carotenoid (β-carotene, lutein or lycopene), or placebo for 8 weeks. Plasma carotenoid concentrations were analyzed by an HPLC system with a C30 column, and lymphocyte DNA damage was determined by a single cell gel electrophoresis (comet) assay.
Subjects (50-70 yr, n=37) were housed at the MRU for the first two days of the study. On the first day of the study, subjects were randomly assigned to take either 1) placebo, 2) 4 mg each of lutein, β-carotene and lycopene, 3) 4 mg of lutein, 4) 4 mg of β-carotene, or 5) 4 mg of lycopene with a meal containing 25 g of fat. Subjects were provided with a two-week supply of placebo or carotenoids along with instructions how to consume the supplements while being maintained with a low carotenoid diet on each sampling day (days 1, 15, 29 & 43). In particular, they were instructed to take the carotenoid supplements with their first meal of the day, and this food source should include 10 g of fat to insure maximum absorption of the carotenoid supplement. 10 mL of blood will be drawn at 0 (fasting), 2, 4, 6, 8, 10, 12 and 14 hours after the carotenoid dose to obtain information on the early kinetics of carotenoid absorption and tissue uptake. The subjects had the option to have an intravenous line inserted for blood drawing (I.V.). If they chose this option, 12 mL of blood was drawn for each sample and the first 2 mL of blood was discarded. Chylomicrons (the triglyceride-rich fraction of plasma) were isolated and analyzed for carotenoids to determine the plasma response kinetics in these 14 hr samples. Thereafter, subjects were discharged from the HNRC with a two-week supply of placebo or carotenoids along with instructions on how to consume the doses while being maintained on a low carotenoid diet.
(§2) From the second day of intervention, subjects took either 1) placebo, 2) 4 mg of lutein, 4 mg of β-carotene and 4 mg of lycopene, 3) 12 mg of lutein, 4) 12 mg of β-carotene, or 5) 12 mg of lycopene. On study days 15, 29, 43, and 57, overnight fasting bloods (10 mL) were collected, and 1) plasma carotenoids, 2) antioxidant capacity in both the aqueous and lipid compartments, 3) lipid peroxidation, and 4) DNA damage will be measured in these samples. In addition, 70 mL of fasting blood was collected at days 1 and 57 for the analysis of gene expression profiling in peripheral blood mononuclear cells using high-density filter-based cDNA microarrays. On study day 57, an additional 3 ml of blood was collected to measure the hemoglobin level.
Plasma carotenoid concentrations were measured by a HPLC system as previously described with minor modification (Yeum K J et al. Am J Clin Nutr 1996; 64:594-602). Plasma sample (200 μL) was extracted with 2 mL of chloroform:methanol (2: 1) followed by 3 mL of hexane. Samples were dried under nitrogen and resuspended in 75 μL ethanol:methyl tert-butyl ether (2:1) of which 25 μL was injected onto the HPLC. The HPLC system consisted of a Waters 2695 Separation Module, 2996 Photodiode Array Detector, a Waters 2475 Multi X Fluorescence Detector, a C30 carotenoid column (3 μm, 150×3.0 mm, YMC, Wilmington, N.C.), and a Waters Millenium 32 data station. The mobile phase was methanol:methyl tert-butyl ether:water (85:12:3 with 1.5% ammonium acetate in water; […]) and methanol:methyl tert-butyl ether:water (8:90:2 with 1% ammonium acetate in water; […]). The gradient procedure has been reported earlier (Yeum K J et al. Am J Clin Nutr 1996; 64:594-602). Results were adjusted by an internal standard containing echinenone and retinyl acetate. The CV for interassay (n=25) is 4% and intra assay Is 4% (n=9). […]

lymphocyte DNA [2] = experiment: Hydrogen peroxide induced lymphocyte DNA damage, comet assay; assay type: in vivo, human; settings: for hydrogen peroxide induced lymphocyte DNA damage: DNA challenged with 10 μM H2O2 for 10 min, Means ± SD; for H2O2 induced DNA damage compared to day 1: after 56-day intervention (d 57), H2O2 10 micromolar for 10 min, p<0.05
Experimental: as §1, §2
(§3) DNA breaks and oxidized pyrimidine bases were measured using the alkaline comet assay (Duthie et al Cancer Res 1996; 56:1291-1295). The comet assay, also called the Single Cell Gel Assay, was used to detect DNA damage and repair at the level of single cells. The Comet Assay is a rapid, sensitive test for DNA damage detection (e.g., single- and double-strand breaks, oxidative-induced base damage, and DNA-DNA/DNA-protein cross linking) by electrophoresis. The Comet Assay involves the following steps: 1. Slide preparation (i.e., mixing of cells with low melting agarose, and spread over glass microscope slides); 2. Lysis: (i.e., lysis of cell membrane and other proteins); 3. Unwinding of DNA; 4. Electrophoresis; 5. Neutralization; and 6. Staining and scoring. Cells embedded in agarose on a microscope slide are lysed with non-ionic detergent and high salt, leaving supercoiled matrix-attached DNA in a nucleoid. Under alkaline electrophoresis, DNA with breaks extends towards the anode, forming a “comet tail” when viewed by fluorescence microscopy. The percentage of total fluorescence in the tail is linearly related to DNA break frequency up to about 2 per 10^9 daltons.
(§4) Lymphocyte separation: Lymphocytes were separated immediately after blood samples were collected. Lymphocytes were isolated by density gradient sedimentation (Histopaque 1077, Sigma diagnostic, St. Louis, USA) and frozen in 50% fetal calf serum, 40% culture medium (RPMI 1640, Sigma diagnostic, St. Louis, USA ) and 10% dimethyl sulfoxide to −-80° C. at −1° C./min freezing rate before store in liquid nitrogen.
(§5) Cryopreserved lymphocytes recovery: Cells were recovered by submerging in 37° C. water bath until last trace of ice has melted. Cells were transferred to prechilled 50% RPMI 1640 medium and 50% fetal calf serum and centrifuged at 200 g for 5 min at 4° C. Cells were resuspended in cold PBS and checked for viability (typically 95% viability) and cell number (typically 1×10^5 cells/mL). The lymphocytes of five time points (d1, 15, 29, 43 & 57) were recovered at the same time.
(§6) Alkaline single cell gel electrophoresis: DNA strand breaks were measured in lymphocytes with the alkaline single cell gel electrophoresis, comet assay, (Collins A R. Methods Mol Biol 2002; 203:163-77) with minor modifications. The endogenous DNA damage as well as hydrogen peroxide challenged DNA damage were determined by exposing the agarose embedded with cells to PBS or H2O2 in PBS (10 μM) for 10 min respectively.
(§7) Quantitation of DNA damage: The DNA damage was determined by visual image analysis (Collins A R et al. Methods Mol Biol 2002; 186:147-59). […]

lymphocyte DNA [3] = experiment: Basal (endogenous) lymphocyte DNA damage, alkaline single cell gel electrophoresis (comet) assay; assay type: in vivo, human; settings: for basal lymphocyte DNA damage: women 50-70 yr, mixed 4 mg each/d, single carotenoid 12 mg/d, Means ± SD; for basal DNA damage, percent of comet tail ratio (each day value divided by day 1): d 57, different from placebo p<0.005, FIG. 6; for basal (endogenous) DNA damage compared to day 1: day 15
Experimental: as §1, §2, §3, §4, §5, §6, §7

- plasma lycopene concentrations, change [1]: significantly lower levels
- plasma β-carotene levels, change [1]: did not show any increase
SMILES: CC1=C[C@H](O)CC(C)(C)[C@H]1/C=C/C(C)=C/C=C/C(C)=C/C=C/C=C(C)/C=C/C=C(C)/C=C/C1=C(C)C[C@@H](O)CC1(C)C [Lutein, lutein]
- hydrogen peroxide induced lymphocyte DNA damage (lymphocyte DNA [2]; Day 01 (baseline)): 42.8 ± 6.8%
- hydrogen peroxide induced lymphocyte DNA damage (lymphocyte DNA [2]; Day 15): 43.5 ± 6.2%
- hydrogen peroxide induced lymphocyte DNA damage (lymphocyte DNA [2]; Day 29): 43.1 ± 5.6%
- hydrogen peroxide induced lymphocyte DNA damage (lymphocyte DNA [2]; Day 43): 41.5 ± 9.3%
- hydrogen peroxide induced lymphocyte DNA damage (lymphocyte DNA [2]; Day 57): 39.8 ± 8.4^a %
- H2O2 induced DNA damage compared to day 1 (lymphocyte DNA [2]): did not show any significant change
- basal lymphocyte DNA damage (lymphocyte DNA [3]; Day 01 (baseline)): 10.6 ± 1.4%
- basal lymphocyte DNA damage (lymphocyte DNA [3]; Day 15): 9.4 ± 2.1%
- basal lymphocyte DNA damage (lymphocyte DNA [3]; Day 29): 9.5 ± 1.4%
- basal lymphocyte DNA damage (lymphocyte DNA [3]; Day 43): 7.7 ± 1.5^b %
- basal lymphocyte DNA damage (lymphocyte DNA [3]; Day 57): 7.1 ± 1.7*^c %
- basal DNA damage, percent of comet tail ratio (each day value divided by day 1) (lymphocyte DNA [3]): significantly decreased

- plasma lutein levels, change [1]: no increase
- plasma lycopene concentrations, change [1]: significantly increased
- plasma β-carotene levels, change [1]: did not show any increase
SMILES: CC(C)=CCC/C(C)=C/C=C/C(C)=C/C=C/C(C)=C/C=C/C=C(C)/C=C/C=C(C)/C=C/C=C(\C)CCC=C(C)C [Lycopene, lycopene]
- hydrogen peroxide induced lymphocyte DNA damage (lymphocyte DNA [2]; Day 01 (baseline)): 50.5 ± 8.9 %
- hydrogen peroxide induced lymphocyte DNA damage (lymphocyte DNA [2]; Day 15): 49.2 ± 10.1%
- hydrogen peroxide induced lymphocyte DNA damage (lymphocyte DNA [2]; Day 29): 51.1 ± 3.5 %
- hydrogen peroxide induced lymphocyte DNA damage (lymphocyte DNA [2]; Day 43): 50.0 ± 6.5%
- hydrogen peroxide induced lymphocyte DNA damage (lymphocyte DNA [2]; Day 57): 42.5 ± 6.5^b %
- H2O2 induced DNA damage compared to day 1 (lymphocyte DNA [2]): significantly improved; also recorded: significantly decreased
- basal lymphocyte DNA damage (lymphocyte DNA [3]; Day 01 (baseline)): 11.9 ± 2.6 %
- basal lymphocyte DNA damage (lymphocyte DNA [3]; Day 15): 10.0 ± 3.5^a %
- basal lymphocyte DNA damage (lymphocyte DNA [3]; Day 29): 9.0 ± 2.6^a %
- basal lymphocyte DNA damage (lymphocyte DNA [3]; Day 43): 7.5 ± 1.9^b %
- basal lymphocyte DNA damage (lymphocyte DNA [3]; Day 57): 6.8 ± 1.6*^c %
- basal DNA damage, percent of comet tail ratio (each day value divided by day 1) (lymphocyte DNA [3]): significantly decreased
- basal (endogenous) DNA damage compared to day 1 (lymphocyte DNA [3]): significantly decreased

- plasma lutein levels, change [1]: no increase
- plasma lycopene concentrations, change [1]: significantly lower levels
SMILES: CC1=C(/C=C/C(C)=C/C=C/C(C)=C/C=C/C=C(C)/C=C/C=C(C)/C=C/C2=C(C)CCCC2(C)C)C(C)(C)CCC1 [β-carotene]
- hydrogen peroxide induced lymphocyte DNA damage (lymphocyte DNA [2]; Day 01 (baseline)): 48.2 ± 6.1%
- hydrogen peroxide induced lymphocyte DNA damage (lymphocyte DNA [2]; Day 15): 44.5 ± 8.9%
- hydrogen peroxide induced lymphocyte DNA damage (lymphocyte DNA [2]; Day 29): 41.1 ± 6.2%
- hydrogen peroxide induced lymphocyte DNA damage (lymphocyte DNA [2]; Day 43): 44.2 ± 5.7%
- hydrogen peroxide induced lymphocyte DNA damage (lymphocyte DNA [2]; Day 57): 38.0 ± 4.8%
- H2O2 induced DNA damage compared to day 1 (lymphocyte DNA [2]): significantly improved; also recorded: significantly decreased
- basal lymphocyte DNA damage (lymphocyte DNA [3]; Day 01 (baseline)): 12.4 ± 2.7 %
- basal lymphocyte DNA damage (lymphocyte DNA [3]; Day 15): 9.7 ± 2.4^b %
- basal lymphocyte DNA damage (lymphocyte DNA [3]; Day 29): 8.6 ± 2.9^a %
- basal lymphocyte DNA damage (lymphocyte DNA [3]; Day 43): 9.4 ± 2.4^a %
- basal lymphocyte DNA damage (lymphocyte DNA [3]; Day 57): 8.0 ± 1.8^b %
- basal DNA damage, percent of comet tail ratio (each day value divided by day 1) (lymphocyte DNA [3]): significantly decreased
- basal (endogenous) DNA damage compared to day 1 (lymphocyte DNA [3]): significantly decreased

Source: patent publication US20070082044A1, “Synergistic effect of compositions comprising carotenoids selected from lutein, beta-carotene and lycopene” (TRUSTEES OF TUFTS COLLEGE, priority 2004, published 2007)
